Laboratory results published in patent US9730938B2, “Bruton's tyrosine kinase inhibitor combinations and uses thereof” (Pharmacyclics LLC, priority 2014, dated 2017).

Experiments:
OCI-LY-3 [1] = test: Combined drug treatment cell viability, CellTiter-Glo assay (Example 2); type: cell-based; settings: JAK3 10 μM / MCL-1 3 μM / medium alone, 3 days
OCI-LY-10 [2] = test: as above; type: cell-based; settings: JAK3 10 μM / MCL-1 3 μM / medium alone, 3 days
[3] = test system: TMD8 cells expressing PIM1 L2V; test: Cell growth of modified TMD8 cells treated with ibrutinib; settings: Homo sapiens
U2932 [4] = test: Combined drug treatment cell viability, CellTiter-Glo assay (Example 2); type: cell-based; settings: JAK3 10 μM / MCL-1 3 μM / medium alone, 3 days
[5] = test system: TMD8 cells expressing PIM1 S97N; test: Cell growth of modified TMD8 cells treated with ibrutinib; settings: Homo sapiens
HBL-1 = test: Combined drug treatment cell viability, CellTiter-Glo assay (Example 2); type: cell-based; settings: JAK3 10 μM / MCL-1 3 μM / medium alone, 3 days
TMD8 [6] = test: Combined drug treatment cell viability, CellTiter-Glo assay (Example 1); type: cell-based; settings: IDH1i 10 uM / MALT1i 100 nM / medium alone, 3 days
Method: (§1) DLBCL cells at either 1×10^4 cells or 2×10^4 cells were plated onto each well of a 96-W plate (Table 1).
(§2) The stock solutions for the IDH1 inhibitor AGI5198 and the MALT1 inhibitor MI-2 were each prepared at 50 mM concentration.
(§3) The 96-W plate was then incubated for 3 days. Cell viability was examined using a CellTiter-Glo assay.
(§4) A 40 μL of CellTiter-Glo reagent was added directly into each well of the 96-W plate. The plate was then shaken on a Shaker (Labsystem Wellmix) at speed 5 for 10-20 min at room temperature. Next, 100 μL of the mixed medium was transferred to a white, non-transparent, flat bottom 96-W plate for assaying. A Flexstation 3 luminometer was used for detecting and measuring the luminescent signals. Measurements were taken at room temperature.
(§5) In general, the combination is described as synergistic (CI<1), additive (CI=1), or antagonistic (CI>1). Synergism is further separated into very strong synergism (<0.1), strong synergism (0.1-0.3), synergism (0.3-0.7), moderate synergism (0.7-0.85), and slight synergism (0.85-0.9).

U2932 [7] = test: as above; type: cell-based; settings: IDH1i 10 uM / MALT1i 200 nM / medium alone, 3 days
Method: as §1, §2, §3, §4, §5

OCI-LY-10 [8] = test: as above; type: cell-based; settings: IDH1i 10 uM / MALT1i 5 uM / medium alone, 3 days
Method: as §1, §2, §3, §4, §5

OCI-LY-3 [9] = test: as above; type: cell-based; settings: IDH1i 10 uM / MALT1i 5 uM / medium alone, 3 days
Method: as §1, §2, §3, §4, §5

SU-DHL-2 [10] = test: as above; type: cell-based; settings: IDH1i 10 uM / MALT1i 200 nM / medium alone, 3 days
Method: as §1, §2, §3, §4, §5

SU-DHL-2 [11] = test: Combined drug treatment cell viability, CellTiter-Glo assay (Example 2); type: cell-based; settings: JAK3 10 μM / MCL-1 3 μM / medium alone, 3 days
TMD8 [12] = test: as above; type: cell-based; settings: JAK3 10 μM / MCL-1 3 μM / medium alone, 3 days
[13] = test system: TMD8 cells expressing PIM1 P81S; test: Cell growth of modified TMD8 cells treated with ibrutinib; settings: Homo sapiens
[14] = test system: TMD8 cells expressing PIM1-WT; test: as above; settings: Homo sapiens

## C=CC(=O)N1CCC[C@@H](n2nc(-c3ccc(Oc4ccccc4)cc3)c3c(N)ncnc32)C1 [ibrutinib, 1-((R)-3-(4-amino-3-(4-phenoxyphenyl)-1H-pyrazolo[3,4-d]pyrimidin-1-yl)piperidin-1-yl)prop-2-en-1-one]
OCI-LY-3 [1]; ibrutinib 0.0512 nM
  luminescence (CellTiter-Glo): 80095.49
OCI-LY-3 [1]; ibrutinib 0.256 nM
  luminescence (CellTiter-Glo): 81910.97
OCI-LY-3 [1]; ibrutinib 1.28 nM
  luminescence (CellTiter-Glo): 89730.66
OCI-LY-3 [1]; ibrutinib 6.4 nM
  luminescence (CellTiter-Glo): 81709.84
OCI-LY-3 [1]; ibrutinib 32 nM
  luminescence (CellTiter-Glo): 80596.96
OCI-LY-3 [1]; ibrutinib 160 nM
  luminescence (CellTiter-Glo): 84190.37
OCI-LY-3 [1]; ibrutinib 800 nM
  luminescence (CellTiter-Glo): 82227.41
OCI-LY-3 [1]; ibrutinib 20000 nM
  luminescence (CellTiter-Glo): 69084.64
OCI-LY-3 [1]; ibrutinib 40000 nM
  luminescence (CellTiter-Glo): 75112.98
OCI-LY-10 [2]; ibrutinib 0.0512 nM
  luminescence (CellTiter-Glo): 46968.14
OCI-LY-10 [2]; ibrutinib 1.28 nM
  luminescence (CellTiter-Glo): 28222.33
OCI-LY-10 [2]; ibrutinib 6.4 nM
  luminescence (CellTiter-Glo): 17144.41
OCI-LY-10 [2]; ibrutinib 32 nM
  luminescence (CellTiter-Glo): 14003.51
OCI-LY-10 [2]; ibrutinib 160 nM
  luminescence (CellTiter-Glo): 13712.84
OCI-LY-10 [2]; ibrutinib 800 nM
  luminescence (CellTiter-Glo): 14708.66
OCI-LY-10 [2]; ibrutinib 20000 nM
  luminescence (CellTiter-Glo): 14261.89
OCI-LY-10 [2]; ibrutinib 40000 nM
  luminescence (CellTiter-Glo): 15817.53
[3]
  EC50: > 1 µM
U2932 [4]; ibrutinib 0.0512 nM
  luminescence (CellTiter-Glo): 62396.81
U2932 [4]; ibrutinib 0.256 nM
  luminescence (CellTiter-Glo): 60528.12
U2932 [4]; ibrutinib 1.28 nM
  luminescence (CellTiter-Glo): 60811.50
U2932 [4]; ibrutinib 6.4 nM
  luminescence (CellTiter-Glo): 58640.71
U2932 [4]; ibrutinib 32 nM
  luminescence (CellTiter-Glo): 57009.94
U2932 [4]; ibrutinib 160 nM
  luminescence (CellTiter-Glo): 55090.45
U2932 [4]; ibrutinib 800 nM
  luminescence (CellTiter-Glo): 54579.83
U2932 [4]; ibrutinib 20000 nM
  luminescence (CellTiter-Glo): 18900.83
U2932 [4]; ibrutinib 40000 nM
  luminescence (CellTiter-Glo): 55951.28
[5]
  EC50: > 1 µM
HBL-1; ibrutinib 0.0512 nM
  luminescence (CellTiter-Glo): 46288.31
HBL-1; ibrutinib 0.256 nM
  luminescence (CellTiter-Glo): 42826.48
HBL-1; ibrutinib 1.28 nM
  luminescence (CellTiter-Glo): 43461.99
HBL-1; ibrutinib 6.4 nM
  luminescence (CellTiter-Glo): 38857.83
HBL-1; ibrutinib 32 nM
  luminescence (CellTiter-Glo): 35516.66
HBL-1; ibrutinib 160 nM
  luminescence (CellTiter-Glo): 35090.31
HBL-1; ibrutinib 800 nM
  luminescence (CellTiter-Glo): 35103.71
HBL-1; ibrutinib 20000 nM
  luminescence (CellTiter-Glo): 16831.87
HBL-1; ibrutinib 40000 nM
  luminescence (CellTiter-Glo): 36806.47
TMD8 [6]; ibrutinib 0.0256 nM
  luminescence (CellTiter-Glo): 32496.06
TMD8 [6]; ibrutinib 0.128 nM
  luminescence (CellTiter-Glo): 32828.16
TMD8 [6]; ibrutinib 0.64 nM
  luminescence (CellTiter-Glo): 29180.29
TMD8 [6]; ibrutinib 3.2 nM
  luminescence (CellTiter-Glo): 31383.77
TMD8 [6]; ibrutinib 16 nM
  luminescence (CellTiter-Glo): 27190.31
TMD8 [6]; ibrutinib 80 nM
  luminescence (CellTiter-Glo): 28263.05
TMD8 [6]; ibrutinib 400 nM
  luminescence (CellTiter-Glo): 25674.76
TMD8 [6]; ibrutinib 2000 nM
  luminescence (CellTiter-Glo): 23421.20
TMD8 [6]; ibrutinib 10000 nM
  luminescence (CellTiter-Glo): 10819.72
U2932 [7]; ibrutinib 0.0256 nM
  luminescence (CellTiter-Glo): 63123.80
U2932 [7]; ibrutinib 0.128 nM
  luminescence (CellTiter-Glo): 57150.28
U2932 [7]; ibrutinib 0.64 nM
  luminescence (CellTiter-Glo): 53722.16
U2932 [7]; ibrutinib 3.2 nM
  luminescence (CellTiter-Glo): 53031.79
U2932 [7]; ibrutinib 16 nM
  luminescence (CellTiter-Glo): 51023.93
U2932 [7]; ibrutinib 80 nM
  luminescence (CellTiter-Glo): 49777.58
U2932 [7]; ibrutinib 400 nM
  luminescence (CellTiter-Glo): 46009.54
U2932 [7]; ibrutinib 2000 nM
  luminescence (CellTiter-Glo): 46858.01
U2932 [7]; ibrutinib 10000 nM
  luminescence (CellTiter-Glo): 37935.94
OCI-LY-10 [8]; ibrutinib 0.0256 nM
  luminescence (CellTiter-Glo): 61548.88
OCI-LY-10 [8]; ibrutinib 0.128 nM
  luminescence (CellTiter-Glo): 68196.56
OCI-LY-10 [8]; ibrutinib 0.64 nM
  luminescence (CellTiter-Glo): 63983.91
OCI-LY-10 [8]; ibrutinib 3.2 nM
  luminescence (CellTiter-Glo): 51190.81
OCI-LY-10 [8]; ibrutinib 16 nM
  luminescence (CellTiter-Glo): 27324.38
OCI-LY-10 [8]; ibrutinib 80 nM
  luminescence (CellTiter-Glo): 23511.43
OCI-LY-10 [8]; ibrutinib 400 nM
  luminescence (CellTiter-Glo): 23784.91
OCI-LY-10 [8]; ibrutinib 2000 nM
  luminescence (CellTiter-Glo): 24452.84
OCI-LY-10 [8]; ibrutinib 10000 nM
  luminescence (CellTiter-Glo): 24826.24
OCI-LY-3 [9]; ibrutinib 0.0256 nM
  luminescence (CellTiter-Glo): 63957.70
OCI-LY-3 [9]; ibrutinib 0.128 nM
  luminescence (CellTiter-Glo): 59441.78
OCI-LY-3 [9]; ibrutinib 0.64 nM
  luminescence (CellTiter-Glo): 63322.70
OCI-LY-3 [9]; ibrutinib 3.2 nM
  luminescence (CellTiter-Glo): 66789.02
OCI-LY-3 [9]; ibrutinib 16 nM
  luminescence (CellTiter-Glo): 64655.70
OCI-LY-3 [9]; ibrutinib 80 nM
  luminescence (CellTiter-Glo): 68972.20
OCI-LY-3 [9]; ibrutinib 400 nM
  luminescence (CellTiter-Glo): 64472.02
OCI-LY-3 [9]; ibrutinib 2000 nM
  luminescence (CellTiter-Glo): 55749.79
OCI-LY-3 [9]; ibrutinib 10000 nM
  luminescence (CellTiter-Glo): 63477.51
SU-DHL-2 [10]; ibrutinib 0.0256 nM
  luminescence (CellTiter-Glo): 141202.0
SU-DHL-2 [10]; ibrutinib 0.128 nM
  luminescence (CellTiter-Glo): 146159.1
SU-DHL-2 [10]; ibrutinib 0.64 nM
  luminescence (CellTiter-Glo): 159399.0
SU-DHL-2 [10]; ibrutinib 3.2 nM
  luminescence (CellTiter-Glo): 161613.5
SU-DHL-2 [10]; ibrutinib 16 nM
  luminescence (CellTiter-Glo): 155353.5
SU-DHL-2 [10]; ibrutinib 80 nM
  luminescence (CellTiter-Glo): 164140.7
SU-DHL-2 [10]; ibrutinib 400 nM
  luminescence (CellTiter-Glo): 159908.6
SU-DHL-2 [10]; ibrutinib 2000 nM
  luminescence (CellTiter-Glo): 154426.1
SU-DHL-2 [10]; ibrutinib 10000 nM
  luminescence (CellTiter-Glo): 111485.8
SU-DHL-2 [11]; ibrutinib 0.0512 nM
  luminescence (CellTiter-Glo): 168606.0
SU-DHL-2 [11]; ibrutinib 0.256 nM
  luminescence (CellTiter-Glo): 180865.8
SU-DHL-2 [11]; ibrutinib 1.28 nM
  luminescence (CellTiter-Glo): 185508.3
SU-DHL-2 [11]; ibrutinib 6.4 nM
  luminescence (CellTiter-Glo): 178437.4
SU-DHL-2 [11]; ibrutinib 32 nM
  luminescence (CellTiter-Glo): 180464.1
SU-DHL-2 [11]; ibrutinib 160 nM
  luminescence (CellTiter-Glo): 183505.7
SU-DHL-2 [11]; ibrutinib 800 nM
  luminescence (CellTiter-Glo): 181165.6
SU-DHL-2 [11]; ibrutinib 20000 nM
  luminescence (CellTiter-Glo): 4650.6
SU-DHL-2 [11]; ibrutinib 40000 nM
  luminescence (CellTiter-Glo): 180616.8
TMD8 [12]; ibrutinib 0.0512 nM
  luminescence (CellTiter-Glo): 28324.66
TMD8 [12]; ibrutinib 0.256 nM
  luminescence (CellTiter-Glo): 28516.97
TMD8 [12]; ibrutinib 1.28 nM
  luminescence (CellTiter-Glo): 28727.97
TMD8 [12]; ibrutinib 6.4 nM
  luminescence (CellTiter-Glo): 28578.40
TMD8 [12]; ibrutinib 32 nM
  luminescence (CellTiter-Glo): 28802.75
TMD8 [12]; ibrutinib 160 nM
  luminescence (CellTiter-Glo): 29096.55
TMD8 [12]; ibrutinib 800 nM
  luminescence (CellTiter-Glo): 25963.61
TMD8 [12]; ibrutinib 20000 nM
  luminescence (CellTiter-Glo): 5261.63
TMD8 [12]; ibrutinib 40000 nM
  luminescence (CellTiter-Glo): 22488.80
[13]
  EC50: > 1 µM
[14]
  EC50: 0.076 µM
